Assay results: patent US6767991B1, “Hepatitis C inhibitor peptides” (priority 1997, dated 2004)
Read-outs that look alike come from different tables or passages of the source. *1 amine or outer side, *2 acyl side, *3 side chain or, on linkers, in order; H or OH if unused. Where a SMILES comes first, the peptide text is derived from it. [ ]: non-standard residue; d: D form. The star is where a group is joined. CH2(1-naphthyl) = c1ccc2c(C*)cccc2c1; Glutaryl = O=C(CCCC(=O)[*:2])[*:1]; Hyp = O=C(O)[C@@H]1C[C@@H](O)CN1; NMeI = CC[C@H](C)[C@H](NC)C(=O)O; AllylGly = C=CC[C@H](N)C(=O)O; Chg = N[C@H](C(=O)O)C1CCCCC1; Suc = O=C(CCC(=O)[*:2])[*:1]; Tle = CC(C)(C)[C@H](N)C(=O)O; Ac5c = NC1(C(=O)O)CCCC1; Nva = CCC[C@H](N)C(=O)O; X1 = c1ccc2cc(C*)ccc2c1; X4 = Brc1cc(Br)cc(C*)c1; Abu = CC[C@H](N)C(=O)O; Ac3c = NC1(C(=O)O)CC1; X3 = CC(=O)OCC(=O)*; Bn = c1ccc(C*)cc1

Target: T1, HCV NS3 protease type 1b/NS4A cofactor peptide (Hepatitis C virus genotype 1b, UniProt P26663)
T1 construct: recombinant HCV NS3 protease (amino acid 1027 to 1206) was cloned in the pET11d bacterial expression vector; made in house; host or cells: E. coli BL21(DE3)pLysS
Experiment: Recombinant HCV NS3 protease/NS4A cofactor peptide radiometric assay
Assay type: biochemical, HCV genotype 1b
Details: read-out: IC50
Description: Recombinant HCV NS3 Protease/NS4A Cofactor Peptide Radiometric Assay.
The enzyme was stored at −80° C., thawed on ice and diluted just prior to use in the assay buffer containing the NS4A cofactor peptide.
The substrate used for the NS3 protease/NS4A cofactor peptide radiometric assay, DDIVPC-SMSYTW [SEQ. ID NO. 2], is cleaved between the cysteine and the serine residues by the enzyme. The sequence DDIVPC-SMSYTW [SEQ. ID NO. 2] corresponds to the NS5A/NS5B natural cleavage site in which the cysteine residue in P2 has been substituted for a proline. The peptide substrate DDIVPC-SMSYTW [SEQ. ID NO. […] ID NO. […] [SEQ. ID NO. 5] (molar ratio enzyme: cofactor 1:100) in the absence or presence of inhibitors. The separation of substrate from products is performed by adding avidin-coated agarose beads to the assay mixture followed by filtration. […] ID NO. 4] product found in the filtrate allows for the calculation of the percentage of substrate conversion and of the percentage of inhibition.
Tris and Tris-HCl (UltraPure) were obtained from Gibco-BRL. Glycerol (UltraPure), MES and BSA were purchased from Sigma. TCEP was obtained from Pierce, DMSO from Aldrich and NaOH from Anachemia.
Assay buffer: 50 mM Tris HCl, pH 7.5, 30% (w/v) glycerol, 1 mg/mL BSA, 1 mM TCEP (TCEP added just prior to use from a 1 M stock solution in water).
Substrate: […] [SEQ. ID NO.
ID NO. 3] (˜1 nM final concentration).
The assay was performed in a 96-well polypropylene plate from Costar. Each well contained:
20 μL substrate/tracer in assay buffer;
10 μL±inhibitor in 20% DMSO/assay buffer;
10 μL NS3 protease 1b/NS4 cofactor peptide (molar ratio 1:100).
Blank (no inhibitor and no enzyme) and control (no inhibitor) were also prepared on the same assay plate.
The enzymatic reaction was initiated by the addition of the enzyme/NS4A peptide solution and the assay mixture was incubated for 40 min at 23° C. under gentle agitation. Ten (10) μL of 0.5N NaOH were added and 10 μL 1 M MES, pH 5.8 were added to quench the enzymatic reaction.
Twenty (20) μL of avidin-coated agarose beads (purchased from Pierce) were added in a Millipore MADP N65 filtration plate. The quenched assay mixture was transferred to the filtration plate, and incubated for 60 min at 23° C. under gentle agitation.
The plates were filtered using a Millipore MultiScreen Vacuum Manifold Filtration apparatus, and 40 μL of the filtrate was transferred in an opaque 96-well plate containing 60 μL of scintillation fluid per well.
The % inhibition was calculated with the following equation:
100-[(countsinh-countsblank)/(countsctl-countsblank)×100]

[1] = Table 2, unmarked values: NS3 protease/NS4A cofactor peptide radiometric assay
[2] = Table 1, unmarked values: NS3 protease/NS4A cofactor peptide radiometric assay

T1 sequence (P26663 1027-1206, other chains not shown): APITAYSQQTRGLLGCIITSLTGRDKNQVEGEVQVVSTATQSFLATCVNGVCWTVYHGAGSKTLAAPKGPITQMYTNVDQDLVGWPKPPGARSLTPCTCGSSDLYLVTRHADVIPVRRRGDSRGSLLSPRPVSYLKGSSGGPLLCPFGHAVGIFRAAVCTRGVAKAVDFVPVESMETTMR

Row | SMILES | IC50 [1] [µM] | IC50 [2] [µM]
1 | CC(=O)N[C@H](C(=O)N[C@H](C(=O)N1C[C@H](OCc2ccccc2)C[C@H]1C(=O)N[C@@H](CS)C(=O)O)C(C)C)C1CCCCC1 [compound 261] (Ac-[Chg]V[Hyp](Bn)C-OH) | 28 | –
2 | CCC[C@H](NC(=O)[C@@H]1C[C@@H](OCc2ccc3ccccc3c2)CN1C(=O)[C@@H](NC(=O)[C@@H](NC(=O)[C@@H](CCC(=O)O)NC(=O)[C@H](CC(=O)O)NC(C)=O)[C@@H](C)CC)C(C)C)C(=O)O [compound 213] (Ac-D[dE]IV[Hyp](X1)[Nva]-OH) | 0.036 | –
3 | CC[C@H](C)[C@H](NC(=O)[C@@H](CC(=O)O)NC(=O)[C@H](CC(=O)O)NC(C)=O)C(=O)N[C@H](C(=O)N1CCC[C@H]1C(=O)N[C@@H](CS)C(=O)O)C(C)C [compound 104] (Ac-D[dD]IVPC-OH) | – | 8.5
4 | CC(=O)N[C@H](C(=O)N[C@H](C(=O)N1C[C@H](Oc2ccccc2Br)C[C@H]1C(=O)NC1(C(=O)O)CC1)C(C)C)C1CCCCC1 [compound 239] | 27 | –
5 | CC[C@H](NC(=O)[C@@H]1CCCN1C(=O)[C@@H](NC(=O)[C@@H](NC(=O)[C@H](CC(=O)O)NC(=O)[C@H](CC(=O)O)NC(C)=O)[C@@H](C)CC)C(C)C)C(=O)O [compound 122] (Ac-DDIVP[Abu]-OH) | – | 315
6 | C=CC[C@H](NC(=O)[C@@H]1CCCN1C(=O)[C@@H](NC(=O)[C@@H](NC(=O)[C@H](CC(=O)O)NC(=O)[C@H](CC(=O)O)NC(C)=O)[C@@H](C)CC)C(C)C)C(=O)O [compound 124] (Ac-DDIVP[AllylGly]-OH) | – | 210
7 | CCC[C@H](NC(=O)[C@@H]1C[C@@H](OCc2cccc3ccccc23)CN1C(=O)[C@@H](NC(=O)[C@H]([C@@H](C)CC)N(C)C(=O)CCC(=O)O)C(C)C)C(=O)O [compound 220] (Suc-[NMeI]V[Hyp](CH2(1-naphthyl))[Nva]-OH) | 31 | –
8 | CC[C@H](C)[C@H](NC(=O)[C@@H](NC(=O)[C@H](CC(=O)O)NC(C)=O)C(C)(C)C)C(=O)N[C@H](C(=O)N1CCC[C@H]1C(=O)N[C@@H](CS)C(=O)O)C(C)C [compound 108] (Ac-D[Tle]IVPC-OH) | – | 31
9 | CCC[C@H](NC(=O)[C@@H]1CCCN1C(=O)[C@@H](NC(=O)[C@@H](NC(=O)[C@H](CC(=O)O)NC(=O)CCC(=O)O)[C@@H](C)CC)C(C)C)C(=O)O [compound 130] (Suc-DIVP[Nva]-OH) | – | 123
10 | CC(=O)N[C@H](C(=O)N[C@H](C(=O)N1C[C@H](OCc2cccc3ccccc23)C[C@H]1C(=O)NC1(C(=O)O)CC1)C1CCCCC1)C1CCCCC1 [compound 231] (Ac-[Chg][Chg][Hyp](CH2(1-naphthyl))[Ac3c]-OH) | 2.6 | –
11 | CCC[C@H](NC(=O)[C@@H]1C[C@@H](OCc2ccc3ccccc3c2)CN1C(=O)[C@@H](NC(=O)[C@@H](NC(=O)[C@H](CC(=O)O)NC(=O)[C@H](CC(=O)O)NC(C)=O)[C@@H](C)CC)C(C)C)C(=O)O [compound 208] (Ac-DDIV[Hyp](X1)[Nva]-OH) | 0.71 | –
12 | CC[C@H](C)[C@H](NC(=O)[C@H](NC(=O)[C@H](CC(=O)O)NC(C)=O)C(C)C)C(=O)N[C@H](C(=O)N1CCC[C@H]1C(=O)N[C@@H](CS)C(=O)O)C(C)C [compound 274] (Ac-D[dV]IVPC-OH) | 7.6 | –
13 | CCC[C@H](NC(=O)[C@@H]1C[C@@H](OCc2cccc3ccccc23)CN1C(=O)[C@@H](NC(=O)[C@@H](NC(=O)[C@H](CC(=O)O)NC(C)=O)[C@@H](C)CC)C(C)C)C(=O)O [compound 219] (Ac-DIV[Hyp](CH2(1-naphthyl))[Nva]-OH) | 2.3 | –
14 | CCC[C@H](NC(=O)[C@@H]1C[C@@H](OCc2ccccc2)CN1C(=O)[C@@H](NC(=O)[C@@H](NC(=O)[C@H](NC(=O)[C@H](CC(=O)O)NC(C)=O)C(C)C)[C@@H](C)CC)C(C)C)C(=O)O [compound 202] (Ac-D[dV]IV[Hyp](Bn)[Nva]-OH) | 0.93 | –
15 | CCC[C@H](NC(=O)[C@@H]1C[C@@H](OCc2ccccc2)CN1C(=O)[C@@H](NC(=O)[C@@H](NC(=O)[C@@H](CCC(=O)O)NC(=O)[C@H](CC(=O)O)NC(C)=O)C1CCCCC1)C(C)C)C(=O)O [compound 211] (Ac-D[dE][Chg]V[Hyp](Bn)[Nva]-OH) | 0.12 | –
16 | CC(=O)N[C@@H](CC(=O)O)C(=O)N[C@H](CCC(=O)O)C(=O)N[C@H](C(=O)N[C@@H](CCC(=O)O)C(=O)N[C@@H](CCC(=O)O)C(=O)NC1(C(=O)O)CC1)C1CCCCC1 [compound 132] (Ac-D[dE][Chg]EE[Ac3c]-OH) | – | 36
17 | CCC[C@H](NC(=O)[C@@H]1C[C@@H](OCc2cccc3ccccc23)CN1C(=O)[C@@H](NC(=O)[C@@H](NC(C)=O)C1CCCCC1)C(C)C)C(=O)O [compound 252] (Ac-[Chg]V[Hyp](CH2(1-naphthyl))[Nva]-OH) | 20 | –
18 | CC[C@H](C)[C@H](NC(=O)[C@@H](CCC(=O)O)NC(=O)[C@H](CC(=O)O)NC(C)=O)C(=O)N[C@H](C(=O)N1CCC[C@H]1C(=O)N[C@@H](CS)C(=O)O)C(C)C [compound 105] (Ac-D[dE]IVPC-OH) | – | 1.5
19 | CCC[C@H](NC(=O)[C@@H]1C[C@@H](OCc2cccc3ccccc23)CN1C(=O)[C@@H](NC(=O)[C@@H](NC(=O)CCCC(=O)O)[C@@H](C)CC)C(C)C)C(=O)O [compound 222] (Glutaryl-IV[Hyp](CH2(1-naphthyl))[Nva]-OH) | 20 | –
20 | CC[C@H](C)[C@H](NC(C)=O)C(=O)N[C@H](C(=O)N1C[C@H](OCc2cccc3ccccc23)C[C@H]1C(=O)NC1(C(=O)O)CC1)C(C)C [compound 262] (Ac-IV[Hyp](CH2(1-naphthyl))[Ac3c]-OH) | 40 | –
21 | CC(=O)OCC(=O)N[C@H](C(=O)N[C@H](C(=O)N1C[C@H](OCc2cccc3ccccc23)C[C@H]1C(=O)NC1(C(=O)O)CC1)C1CCCCC1)C1CCCCC1 [compound 232] (X3-[Chg][Chg][Hyp](CH2(1-naphthyl))[Ac3c]-OH) | 1.4 | –
22 | CC[C@H](C)[C@H](NC(=O)[C@H](CC(=O)O)NC(=O)[C@H](CC(=O)O)NC(C)=O)C(=O)N[C@H](C(=O)N1CCC[C@H]1C(=O)NC1(C(=O)O)CCCC1)C(C)C [compound 125] (Ac-DDIVP[Ac5c]-OH) | – | 210
23 | CC(=O)N[C@@H](CC(=O)O)C(=O)N[C@@H](CCC(=O)O)C(=O)N[C@H](C(=O)N[C@@H](CCC(=O)O)C(=O)N[C@@H](CCC(=O)O)C(=O)N[C@@H](CS)C(=O)O)C1CCCCC1 [compound 131] (Ac-DE[Chg]EEC-OH) | – | 24
24 | CCC[C@H](NC(=O)[C@@H]1C[C@@H](OCc2cccc3ccccc23)CN1C(=O)[C@@H](NC(=S)[C@@H](NC(=O)CNC(C)=O)[C@@H](C)CC)C(C)C)C(=O)O [compound 236] | 4 | –
25 | CCC[C@H](NC(=O)[C@@H]1C[C@@H](OCc2ccccc2)CN1C(=O)[C@@H](NC(=O)[C@@H](NC(=O)[C@H](CC(=O)O)NC(=O)[C@H](CC(=O)O)NC(C)=O)[C@@H](C)CC)C(C)C)C(=O)O [compound 201] (Ac-DDIV[Hyp](Bn)[Nva]-OH) | 7.2 | –
26 | CC(=O)N[C@H](C(=O)N[C@H](C(=O)N1C[C@H](OCc2cc(Br)cc(Br)c2)C[C@H]1C(=O)NC1(C(=O)O)CC1)C(C)C)C1CCCCC1 [compound 272] (Ac-[Chg]V[Hyp](X4)[Ac3c]-OH) | 27 | –
27 | CCC[C@H](NC(=O)[C@@H]1C[C@@H](OCc2cccc3ccccc23)CN1C(=O)[C@@H](NC(=O)[C@@H](NC(=O)[C@H](CC(=O)O)NC(=O)[C@H](CC(=O)O)NC(C)=O)[C@@H](C)CC)C(C)C)C(=O)O [compound 207] (Ac-DDIV[Hyp](CH2(1-naphthyl))[Nva]-OH) | 0.39 | –
28 | CC(=O)N[C@H](C(=O)N[C@H](C(=O)N1C[C@H](Oc2ccc(I)cc2)C[C@H]1C(=O)NC1(C(=O)O)CC1)C(C)C)C1CCCCC1 [compound 249] | 9.7 | –
29 | CC(=O)N[C@@H](CC(=O)O)C(=O)N[C@H](CCC(=O)O)C(=O)N[C@H](C(=O)N[C@H](C(=O)N1C[C@H](OCc2cccc3ccccc23)C[C@H]1C(=O)NC1(C(=O)O)CC1)C(C)C)C1CCCCC1 [compound 215] (Ac-D[dE][Chg]V[Hyp](CH2(1-naphthyl))[Ac3c]-OH) | 0.014 | –
30 | CCC[C@H](NC(=O)[C@@H]1C[C@@H](OCc2cccc3ccccc23)CN1C(=O)[C@@H](NC(=O)[C@@H](NC(=O)CCC(=O)O)[C@@H](C)CC)C(C)C)C(=O)O [compound 221] (Suc-IV[Hyp](CH2(1-naphthyl))[Nva]-OH) | 22 | –
